Measured values: US9596859B2, “Emulsifiable concentrate for a phytosanitary composition, phytosanitary composition and phytosanitary film” (Total Marketing Services, priority 2009, dated 2017)

Test system: Aonidiella aurantii
Assay: Insecticidal efficacy of emulsions sprayed on citrus groves (oranges)
Conditions: concentration 0.151/hl
Method: Samples of products to be tested on citrus groves (oranges) are prepared. The reference R corresponds to an untreated citrus plot.
Emulsions according to the invention are used, obtained from X6, at 3% in a mixture of hydrocarbons as described in Example 1 for forming the concentrate. This concentrate is mixed at concentrations of 1 and 2% in water, then emulsified. The citrus groves are sprayed at a rate of 1200 L/ha. The efficacy of these emulsions is compared to that of an emulsion of the prior art T1, as described hereinafter and to a chemical reference product corresponding to the use of a synthetic pesticide, here Chlorpyrifos, reference T2.
For the emulsion T1, the concentrate is prepared using 1.4% ethoxylated C12-C14 alcohol and 1.6% ethoxylated C13 alcohol acid phosphate in the same mixture of hydrocarbons. As previously, this concentrate is mixed at concentrations of 1 and 2% in water then emulsified. The resulting emulsions are applied in an identical manner onto citrus.
The efficacy of these emulsions in preventing harmful insect activity is then evaluated, by comparison with the reference products and the prior art. To this end, a count is undertaken of the number of insects present at the time of application of the emulsions on the reference, and the number of insects having withstood the treatment after 20 days. The efficacy is measured according to the Abbott formula based on the number of live insects, the number of dead insects and the % of citrus infected (more than 3 insects per fruit).

In the case of CCOP(=S)(OCC)Oc1nc(Cl)c(Cl)cc1Cl [Concentrate T2, Chlorpyrifos], the “% Efficacy (Based on mortality)” value (Abbott formula, t + 20 days) is reported as 83.3%, the “% Efficacy (Based on the number of live individuals)” value (Abbott formula, t + 20 days) is reported as 89.9% and the “% mortality” value (t + 20 days, citrus) is reported as 88.0%. For the same molecule, the “Number of dead individuals” value (t + 20 days, citrus) was 172.0, the “Number of live individuals” value (t + 20 days, citrus) was 23.5 and the “% fruits infected” value (t + 20 days, infected = more than 3 insects per fruit) was 7.8%. The “Number of live individuals” value (t = 0 (at application), citrus) was 216.5.
